This assay deals with Diet-induced obesity (DIO) mice. The assay is described as follows: Blood glucose level in DIO mice. The format is in vivo, C57BL/6J mice.

These results are taken from patent US20190022061A1 (priority 2017, published 2019).

Description: In this study, RAASUS products (KH103, KHJ and KHGD) were dosed three times a day (T ID) for 99 days. […] On day 63 post dosing, OGTT test were conducted for all of the mice. […] On day −5, day 14, day 28 the non-fast blood was collected to determine the non-fast BG, insulin, TG, HDL-C, LDL-C and TCHO level. On day 42, day 56, day 70, day 84 the fast blood was collected to determine the fast BG, insulin, TG, HDL-C, LDL-C and TCHO level.
Male C57BL/6J mice (Shanghai Laboratory Animal Center, Shanghai, China, 5 weeks) were fed with high fat diet (D12492i, Research Diet, New Brunswick, N.J.) (caloric contribution: protein, 20%; fat, 60%; carbohydrates, 20%) ad lib for 21 weeks for the induction of obesity.
The mice of Group 3, Group 4 were orally dosed with KH103, KHJ respectively three times per day at 9:00, 13:00, 17:00 and free drinl<KH103, KHJ respectively at day and night from Day O to Day 99. […]
The random blood glucose, insulin level were measured using tailing nick once per two weeks on day −5, day 14, day 28.
The fast blood glucose (fast from 17:30 to 8:00 AM) insulin level were measured using tailing nick once per two weeks on day 42, day 56, day 70, day 84. […]
Blood Glucose: Blood glucose was determined using the Glucosemeter (Johnson and Johnson) and the Glucose Test Strips (Johnson and Johnson).

In the case of `CC(C)c1c(C(=O)Nc2ccccc2)c(-c2ccccc2)c(-c2ccc(F)cc2)n1CC[C@@H](O)C[C@@H](O)CC(=O)O` [Atorvastatin], the blood glucose level result (DIO mice, po three times a day, compared with the vehicle groups, 12 weeks post dose) is given as “significantly decrease”. Further, the blood sugar level result (animal study, diabetics, general statement) is “lower down”.
